Experimental findings from patent US9386769B2 (HUNAN RESEARCH INSTITUTE OF CHEMICAL INDUSTRY CO., LTD., priority 2011, dated 2016) are described below.

The subject of one data set is Alternaria alternata. In words: Fungicidal activity against Alternaria alternata, mycelial growth inhibition on PDA plate. In kind it is cell-based. The protocol: (§1) Bioassay method: Stock solution of every test compound was prepared in an appropriate solvent such as N,N-dimethylformamide (DMF), and then diluted to the required test concentrations with sterile water containing 0.1% Tween 80; Pipetted 3 mL of test solution to 27 mL of potato dextrose agar (PDA) medium at 45° C. and poured into a Petri dish to prepare a plate after shaking thoroughly; 6 mm of diameter of fungi cake from the edge of 7-day-old […] colony was inoculated on the central of the plate, wherein mycelium facing down, and cultured in the culture tank at 28° C. The diameter of fungi spread was calculated 4 days later using the control group tested with the diluent only. Test was run 4 times. Data were subjected to EXCEL statistical software analysis and the growth inhibition of the tested compound was calculated according to the corresponding control, the activity was rated on the basis of percentage of growth inhibition using the following rating system: A, inhibition (%)>90; B, 90≧inhibition (%)>70; C, 70≧inhibition (%)>50; D, inhibition (%)≦50.
Fungicidal activities against Alternaria alternata of compounds represented by the general formula (I) were evaluated with the corresponding method in Example 18, and some of the test results are shown in Table 9 to Table 10.

The next data set deals with Botrytis cinerea. Nature of the data set: Fungicidal activity against Botrytis cinerea, mycelial growth inhibition on PDA plate. In kind it is cell-based. The note with it: for activities against Botrytis cinerea (growth inhibition rating) / inhibition at 25 µg/mL: 25 mg/L; for inhibition at 0.1562 µg/mL: 0.1562 mg/L; for inhibition at 0.3125 µg/mL: 0.3125 mg/L; for inhibition at 0.625 µg/mL: 0.625 mg/L; for inhibition at 1.255 µg/mL: 1.255 mg/L; for inhibition at 25 µg/mL: read-out: activities against Botrytis cinerea (growth inhibition rating). The protocol:
as §1
Fungicidal activities against Botrytis cinerea of compounds represented by the general formula (I) were evaluated with the corresponding method in Example 18, and some of the test results are shown in Table 6 to Table 8.

A further data set relates to Sclerotinia sclerotiorum. Nature of the data set: Fungicidal activity against Sclerotinia sclerotiorum, mycelial growth inhibition on PDA plate. In kind it is cell-based. The note with it: for activities against Sclerotinia sclerotiorum (growth inhibition rating) / inhibition at 25 µg/mL: 25 mg/L; for inhibition at 0.1562 µg/mL / inhibition at 0.3125 µg/mL / inhibition at 0.625 µg/mL / inhibition at 1.255 µg/mL / inhibition at 2.5 µg/mL / inhibition at 5 µg/mL / inhibition at 10 µg/mL / inhibition at 25 µg/mL: Sclerotinia sclerotiorum; for inhibition at 0.1562 µg/mL: 0.1562 mg/L; for inhibition at 0.1562 µg/mL / inhibition at 0.3125 µg/mL / inhibition at 0.625 µg/mL / inhibition at 1.255 µg/mL / inhibition at 2.5 µg/mL / inhibition at 5 µg/mL / inhibition at 10 µg/mL: read-out: activities against Sclerotinia sclerotiorum (growth inhibition); for inhibition at 0.3125 µg/mL: 0.3125 mg/L; for inhibition at 0.625 µg/mL: 0.625 mg/L; for inhibition at 1.255 µg/mL: 1.255 mg/L; for inhibition at 25 µg/mL: read-out: activities against Sclerotinia sclerotiorum (growth inhibition rating). The protocol:
as §1

A further data set deals with Aphis fabae. Nature of the data set: Insecticidal activity against Aphis fabae, dipping of horsebean seedlings. In kind it is in vivo. The following applies: 24 h; for mortality at 500 µg/mL: read-out: activities against Aphis fabae (mortality rating). As to the method: Bioassay method: Stock solution of every test compound was prepared in an appropriate solvent such as N,N-dimethylformamide, and a small amount of Tween 80 was added as emulsification agent, then diluted to the required test concentrations with distilled water, using the control group tested with distilled water only. More than 20 adults of Aphis fabae were transferred to newly unearthed horsebean seedlings and 24 hr later, horsebean seedlings with Aphis fabae were dipped in the test solution for 5 s, then allowed to dry with filter paper, transplanted to the absorbent sponge and covered with a glass tube, then kept in a room for normal cultivation. Each assay contained three replications, and results were averaged. Mortality was assessed 24 hr after the treatment. The activity was rated to A, B, C or D according to the rating system in Example 22.

The mark [1] stands for this setting: read-out: activities against Aphis fabae (mortality).
Where [2] appears, read: Botrytis cinerea, Table 8, read-out: activities against Botrytis cinerea (growth inhibition).
The mark [3] stands for this setting: Botrytis cinerea, 2.5 mg/L, Table 8, read-out: activities against Botrytis cinerea (growth inhibition).
[4] abbreviates: Botrytis cinerea, 5 mg/L, Table 8, read-out: activities against Botrytis cinerea (growth inhibition).

Read-outs that look alike come from different tables or passages of the source.

For the compound `CCCOc1ccc([N+](=O)[O-])c(N(CC)Cc2cnc(Cl)s2)n1` [Compound 07], the “activities against Alternaria alternata (growth inhibition)” value in the data set with Alternaria alternata (2.5 mg/L) was determined as 20%; in the data set on Alternaria alternata (5 mg/L), 36%; in the data set with Alternaria alternata (10 mg/L), 45%. The “activities against Alternaria alternata (growth inhibition rating)” value in the data set on Alternaria alternata (25 mg/L) is “C (C, 70≧inhibition (%)>50)”. Also, the “activities against Botrytis cinerea (growth inhibition)” value in the data set on Botrytis cinerea (2.5 mg/L, Table 7) stood at 44%; in the data set with Botrytis cinerea (5 mg/L, Table 7), 52%; in the data set on Botrytis cinerea (10 mg/L, Table 7), 68%. Moreover, the “activities against Botrytis cinerea (growth inhibition rating)” value in the data set on Botrytis cinerea is “B (B, 90≧inhibition (%)>70)”. The “activities against Sclerotinia sclerotiorum (growth inhibition rating)” value in the data set on Sclerotinia sclerotiorum was “B (B, 90≧inhibition (%)>70)”.
Turning to `CCCN(Cc1cnc(Cl)s1)c1nc(OCC)ccc1[N+](=O)[O-]` [Compound 09], the “activities against Botrytis cinerea (growth inhibition)” value with Botrytis cinerea (2.5 mg/L, Table 7) is on record as 52%; in the data set on Botrytis cinerea (5 mg/L, Table 7), 65%; in the data set on Botrytis cinerea (10 mg/L, Table 7), 65%. In addition, the “activities against Botrytis cinerea (growth inhibition rating)” value in the data set with Botrytis cinerea is listed as “A (A, inhibition (%)>90)”. Further, the “activities against Sclerotinia sclerotiorum (growth inhibition rating)” value in the data set with Sclerotinia sclerotiorum was “A (A, inhibition (%)>90)”.
As usually defined, the melting point is the temperature, or range, at which the solid turns liquid. For the compound `CCN(Cc1cnc(Cl)s1)c1nc(Cl)ccc1[N+](=O)[O-]`, the melting point fell in the range of 71.4 to 74.1 °C.
With `CCCOc1ccc([N+](=O)[O-])c(N(CCC)Cc2cnc(Cl)s2)n1` [Compound 10], the “activities against Botrytis cinerea (growth inhibition rating)” value in the data set on Botrytis cinerea is reported as “B (B, 90≧inhibition (%)>70)”. Further, the “activities against Sclerotinia sclerotiorum (growth inhibition rating)” value in the data set on Sclerotinia sclerotiorum is recorded as “B (B, 90≧inhibition (%)>70)”.
As for `COc1nc(NCc2cnc(Cl)s2)ccc1[N+](=O)[O-]` [Compound 47], the “activities against Botrytis cinerea (growth inhibition rating)” value in the data set on Botrytis cinerea is reported as “C (C, 70≧inhibition (%)>50)”.
With `CCN(Cc1sc(C)nc1C)c1nc(OC)ccc1[N+](=O)[O-]` [Compound 44], the “activities against Alternaria alternata (growth inhibition rating)” value in the data set with Alternaria alternata (25 mg/L) is “B (B, 90≧inhibition (%)>70)”. Moreover, in the data set with Botrytis cinerea, the “activities against Botrytis cinerea (growth inhibition rating)” value is “A (A, inhibition (%)>90)”. Besides, the “activities against Sclerotinia sclerotiorum (growth inhibition)” value with Sclerotinia sclerotiorum (2.5 mg/L, Table 4) worked out at 70%; in the data set on Sclerotinia sclerotiorum (5 mg/L, Table 4), 75%; in the data set with Sclerotinia sclerotiorum (10 mg/L, Table 4), 87%. In the data set on Sclerotinia sclerotiorum, the “activities against Sclerotinia sclerotiorum (growth inhibition rating)” value was “A (A, inhibition (%)>90)”.
As for `CCCN(Cc1cnc(Cl)s1)c1nc(OC)ccc1[N+](=O)[O-]` [Compound 08], the “activities against Alternaria alternata (growth inhibition)” value in the data set with Alternaria alternata (2.5 mg/L) is reported as 45%; in the data set on Alternaria alternata (5 mg/L), 48%; in the data set on Alternaria alternata (10 mg/L) it was 60%. Also, in the data set with Alternaria alternata (25 mg/L), the “activities against Alternaria alternata (growth inhibition rating)” value is on record as “C (C, 70≧inhibition (%)>50)”. Also, the “activities against Botrytis cinerea (growth inhibition)” value in the data set with Botrytis cinerea (2.5 mg/L, Table 7) was determined as 68%; in the data set on Botrytis cinerea (5 mg/L, Table 7), 70%; in the data set with Botrytis cinerea (10 mg/L, Table 7) it was 70%. Moreover, the “activities against Botrytis cinerea (growth inhibition rating)” value in the data set on Botrytis cinerea is reported as “A (A, inhibition (%)>90)”. In addition, in the data set on Sclerotinia sclerotiorum, the “activities against Sclerotinia sclerotiorum (growth inhibition rating)” value is recorded as “A (A, inhibition (%)>90)”.
In general, inhibition refers to the share of the control response that was lost under treatment. By mortality is commonly meant the share of the test organisms that died. With `CCOc1ccc([N+](=O)[O-])c(N(CC)Cc2cnc(Cl)s2)n1` [Compound 04, 6-ethoxy-N-((2-chlorothiazole-5-yl)methyl)-N-ethyl-3-nitropyridine-2-amine], the inhibition at 2.5 µg/mL with Alternaria alternata (Alternaria alternata, 2.5 mg/L, read-out: activities against Alternaria alternata (growth inhibition)) amounted to 55%; with Botrytis cinerea (Botrytis cinerea, 2.5 mg/L, Table 7, read-out: activities against Botrytis cinerea (growth inhibition)), 70%; in the data set with Botrytis cinerea (setting [3]), 87%; in the data set with Sclerotinia sclerotiorum (2.5 mg/L, Table 4) it was 75%; in the data set on Sclerotinia sclerotiorum (2.5 mg/L, Table 5), 70%. Besides, the inhibition at 5 µg/mL was 60% in the data set with Alternaria alternata (Alternaria alternata, 5 mg/L, read-out: activities against Alternaria alternata (growth inhibition)); 78% in the data set on Botrytis cinerea (Botrytis cinerea, 5 mg/L, Table 7, read-out: activities against Botrytis cinerea (growth inhibition)); 90% with Botrytis cinerea (setting [4]); 90% in the data set with Sclerotinia sclerotiorum (5 mg/L, Table 4); 75% in the data set with Sclerotinia sclerotiorum (5 mg/L, Table 5). Also, the inhibition at 10 µg/mL in the data set with Alternaria alternata (Alternaria alternata, 10 mg/L, read-out: activities against Alternaria alternata (growth inhibition)) was found to be 70%; in the data set with Botrytis cinerea (Botrytis cinerea, 10 mg/L, Table 7, read-out: activities against Botrytis cinerea (growth inhibition)) it was 94%; with Sclerotinia sclerotiorum (10 mg/L, Table 4), 100%. Further, the inhibition at 25 µg/mL with Alternaria alternata (Alternaria alternata, 25 mg/L, read-out: activities against Alternaria alternata (growth inhibition rating)) is 70 to 90%; with Botrytis cinerea (Botrytis cinerea), over 90%; in the data set with Sclerotinia sclerotiorum it was over 90%. Further, in the data set on Aphis fabae, the mortality at 500 µg/mL was over 90%. Further, the mortality at 6.25 µg/mL in the data set with Aphis fabae (setting [1]) was 0%. In the data set with Aphis fabae (setting [1]), the mortality at 25 µg/mL worked out at 26.7%. Also, the mortality at 100 µg/mL with Aphis fabae (setting [1]) was determined as 46.7%. The inhibition at 0.1562 µg/mL in the data set on Botrytis cinerea (setting [2]) came to 63%; with Sclerotinia sclerotiorum (Table 5), 53%. Also, the inhibition at 0.3125 µg/mL with Botrytis cinerea (setting [2]) was 76%; in the data set with Sclerotinia sclerotiorum (Table 5), 59%. The inhibition at 0.625 µg/mL in the data set on Botrytis cinerea (setting [2]) amounted to 81%; in the data set with Sclerotinia sclerotiorum (Table 5), 61%. Also, the inhibition at 1.255 µg/mL came to 82% in the data set on Botrytis cinerea (setting [2]) and 65% in the data set on Sclerotinia sclerotiorum (Table 5).
On to `CCNc1ccc([N+](=O)[O-])c(N(CC)Cc2cnc(Cl)s2)n1` [Compound 24], for which the “activities against Botrytis cinerea (growth inhibition rating)” value in the data set on Botrytis cinerea was “B (B, 90≧inhibition (%)>70)”.
As for `CCOc1ccc([N+](=O)[O-])c(N(Cc2cnc(Cl)s2)C(C)C)n1` [Compound 31], the “activities against Botrytis cinerea (growth inhibition rating)” value in the data set on Botrytis cinerea is listed as “B (B, 90≧inhibition (%)>70)”.
As for `CCN(Cc1cnc(Br)s1)c1nc(OC)ccc1[N+](=O)[O-]` [Compound 33, 6-methoxy-N-((2-bromothiazole-5-yl)methyl)-N-ethyl-3-nitropyridine-2-amine], the inhibition at 25 µg/mL with Botrytis cinerea (Botrytis cinerea) was 70 to 90%; with Sclerotinia sclerotiorum, over 90%. In addition, the inhibition at 2.5 µg/mL in the data set with Sclerotinia sclerotiorum (2.5 mg/L, Table 4) was found to be 91%. Further, the inhibition at 5 µg/mL with Sclerotinia sclerotiorum (5 mg/L, Table 4) is 100%. Further, the inhibition at 10 µg/mL in the data set with Sclerotinia sclerotiorum (10 mg/L, Table 4) was 100%.
For `COc1ccc([N+](=O)[O-])c(N(C)Cc2cnc(Cl)s2)n1` [Compound 17], in the data set with Alternaria alternata (25 mg/L), the “activities against Alternaria alternata (growth inhibition rating)” value is reported as “B (B, 90≧inhibition (%)>70)”.
Take `COC(=O)NC(=S)Nc1ccccc1NC(=S)NC(=O)OC` [Thiophanate-Methyl, reference compound]: in the data set on Botrytis cinerea (setting [2]), the inhibition at 0.1562 µg/mL is 18%, the inhibition at 0.3125 µg/mL was 75%, the inhibition at 0.625 µg/mL was found to be 88% and the inhibition at 1.255 µg/mL stood at 93%. For the same compound, in the data set on Botrytis cinerea (setting [3]), the inhibition at 2.5 µg/mL came out at 98%. Also, in the data set on Botrytis cinerea (setting [4]), the inhibition at 5 µg/mL was found to be 100%. Moreover, in the data set on Sclerotinia sclerotiorum (Table 5), the inhibition at 0.1562 µg/mL stood at 33%, the inhibition at 0.3125 µg/mL was 47%, the inhibition at 0.625 µg/mL was found to be 63% and the inhibition at 1.255 µg/mL was 72%. The inhibition at 2.5 µg/mL in the data set on Sclerotinia sclerotiorum (2.5 mg/L, Table 5) was determined as 77%. Further, the inhibition at 5 µg/mL in the data set on Sclerotinia sclerotiorum (5 mg/L, Table 5) stood at 85%.
The compound `CCN(Cc1cnc(Cl)s1)c1nc(Cl)ccc1Cl` had a melting point of 95.8 to 96.8 °C.
As to `CCOc1nc(N(CC)Cc2cnc(Cl)s2)ccc1[N+](=O)[O-]` [Compound 45], the mortality at 500 µg/mL with Aphis fabae lay within 70 to 90%.
